Data as given in patent US20240124469A1, “PIM KINASE INHIBITOR” (Hangzhou Biosun Pharmaceutical Co., Ltd., priority 2021, published 2024).
Like-named read-outs stand apart in the source and are kept apart here.

How the values were obtained:
PIM1 = PIM1 (Homo sapiens (Human), UniProt P11309); test: PIM1 kinase activity test (Mobility shift assay); type: biochemical
Experimental: (§1) The efficacy of the compounds on the activity of PIM1/2/3 was tested by utilizing the Mobility shift assay method, with the specific procedures shown as follows: the test compounds were each dissolved in DMSO to be prepared into a 10 mM stock solution; for each of the test compounds, the stock solution was subjected to a 3-fold dilution from an initial concentration of 10 μM to obtain 10 concentrations.
(§2) PIM1, PIM2, and PIM3 (all three kinases are from Carna) were each prepared with 1× Kinase buffer into a kinase solution at a concentration that was 2.5 times the final concentration. 10 μL of kinase solution at a concentration that was 2.5 times the final concentration was added to each of the compound wells and the positive control well, and 10 μL of 1× Kinase buffer was added to the negative control well. The plate was centrifuged at 1000 rpm for 30 s, mixed well by shaking, and then incubated at room temperature for 10 min. A mixed solution of ATP and Kinase substrate 20 (from GL) at a concentration that was 25/15 times the final concentration was prepared with 1× Kinase buffer. The reaction was started by adding 15 μL of the mixed solution of ATP and Kinase substrate 20 at a concentration that was 25/15 times the final concentration. The 384-well plate was centrifuged at 1000 rpm for 30 s, mixed well by shaking, and then incubated at room temperature for 60 min. 30 μL of stop assay buffer was added to stop the kinase reaction. The plate was centrifuged at 1000 rpm for 30 s and mixed well by shaking. The conversion rates were read using Caliper EZ Reader.
(§3) The IC50 values of the test compounds for kinase activity were obtained by adopting a fitted dose-response curve of analytic software GraphPad Prism 5.

PIM2 = PIM2 (Homo sapiens (Human), UniProt Q9P1W9); test: PIM2 kinase activity test (Mobility shift assay); type: biochemical
Experimental: as §1, §2, §3

PIM3 = PIM3 (Homo sapiens (Human), UniProt Q86V86); test: PIM3 kinase activity test (Mobility shift assay); type: biochemical
Experimental: as §1, §2, §3

Ba/F3-EPOR-JAK2-V617F = test: Cell inhibitory activity test (72 h CTG); type: cell-based
Experimental: The EPOR-JAK2-V617F gene was transferred into Ba/F3 wild-type cells by a retrovirus packaging system to obtain a stably transfected cell line Ba/F3-EPOR-JAK2-V617F, which was used for the cell inhibitory activity ICso test of the compounds (reference: Blood. 2010; 115(15): 3109-3117). The specific procedures were as follows: • Cells were seeded in a 96-well plate, treated with the test compounds from DMSO stock solutions (final concentration of DMSO is 0.2%), and cultured at 37° C. with 5% CO2 for 72 h. Then, the cell proliferation inhibitory activity was assayed by the CTG (Cell-Titer Glo) method. For each of the test compounds, the stock solution was subjected to a 3-fold dilution from an initial concentration of 10 μM to obtain 9 concentrations. The dose-response relationship curve was fitted by using Graphpad 7.0 analysis software, and IC50 values were obtained.

Pharmacokinetic test = type: in vivo; conditions: BALB/c mice; for AUC(0-t) / clearance / half-life / Vd / Cmax / Tmax: female, mouse, plasma; for half-life: read-out: Terminal t1/2 (converted); for Vd: read-out: Vss
Experimental: Experimental animals: BALB/c mice, female; weight: 19-25 g.
Preparation of test sample: the target compound was prepared into solutions at 0.4 mg/mL (for intravenous administration) and 5.0 mg/mL (for oral administration) for later use. Route of administration: oral administration/intravenous injection. Dosing volume and frequency: 5 mL/kg (intravenous injection) or 10 mL/kg (oral administration), single dose.
Sample collection: blood was collected at the following time points: 5 min, 15 min, 30 min, 1 hr, 2 hr, 4 hr, 8 hr, and 24 hr after the administration.
Sample analysis: the collected samples were detected by using an LC-MS/MS method. The model of the instrument used was AB Sciex 5500.
Pharmacokinetic data analysis: the resulting plasma concentration data were fitted and calculated according to a non-compartmental model.

Sequence of PIM1 (P11309 whole entry): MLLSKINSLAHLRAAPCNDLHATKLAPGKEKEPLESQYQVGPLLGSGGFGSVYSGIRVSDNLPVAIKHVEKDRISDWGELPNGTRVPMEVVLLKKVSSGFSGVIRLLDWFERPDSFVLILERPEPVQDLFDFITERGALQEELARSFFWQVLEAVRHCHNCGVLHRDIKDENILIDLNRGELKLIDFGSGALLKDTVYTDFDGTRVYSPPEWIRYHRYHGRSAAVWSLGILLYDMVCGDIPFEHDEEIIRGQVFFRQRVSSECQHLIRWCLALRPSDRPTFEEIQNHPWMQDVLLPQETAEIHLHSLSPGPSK
Sequence of PIM2 (Q9P1W9 whole entry): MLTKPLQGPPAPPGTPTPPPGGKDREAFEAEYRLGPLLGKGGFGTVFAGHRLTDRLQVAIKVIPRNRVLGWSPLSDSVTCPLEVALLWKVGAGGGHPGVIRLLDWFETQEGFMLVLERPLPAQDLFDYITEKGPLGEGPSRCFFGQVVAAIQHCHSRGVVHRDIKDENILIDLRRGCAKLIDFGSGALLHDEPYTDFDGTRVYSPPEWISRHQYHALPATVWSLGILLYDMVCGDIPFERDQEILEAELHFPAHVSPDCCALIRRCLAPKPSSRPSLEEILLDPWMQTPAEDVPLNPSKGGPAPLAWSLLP

IC50 (PIM1) [nM] | IC50 (PIM2) [nM] | IC50 (PIM3) [nM] | IC50 (Ba/F3-EPOR-JAK2-V617F) [nM] | F (Pharmacokinetic test; oral administration, 50 mg/kg) [%] | AUC(0-t) (Pharmacokinetic test; intravenous injection, 2 mg/kg) [ng·h/mL] | clearance (Pharmacokinetic test; intravenous injection, 2 mg/kg) [mL/min/kg] | half-life (Pharmacokinetic test; intravenous injection, 2 mg/kg) [min] | Vd (Pharmacokinetic test; intravenous injection, 2 mg/kg) [L/kg] | AUC(0-t) (Pharmacokinetic test; oral administration, 50 mg/kg) [ng·h/mL] | Cmax (Pharmacokinetic test; oral administration, 50 mg/kg) [ng/mL] | Tmax (Pharmacokinetic test; oral administration, 50 mg/kg) [min] | half-life (Pharmacokinetic test; oral administration, 50 mg/kg) [min] | SMILES
10 to 100 | 100 to 1000 | 100 to 1000 | > 150 | 42.3 | 652 | 51.8 | 74.4 | 5.58 | 6800 | 2550 | 60 | 79.8 | CC(C)(O)[C@H]1CC[C@H](Nc2ccc3ncc(-c4cccc(C(F)(F)F)c4)n3n2)CC1 [TP-3654, reference compound]
2 to 10 | 1000 to 10000 | 100 to 1000 | 100 to 150 | 89.9 | 523 | 65.8 | 15.6 | 1.47 | 11800 | 10600 | 30 | 54.6 | OC[C@@H]1CC[C@@H](Nc2ccc3ncc(-c4ccc(C(F)(F)F)s4)n3n2)CO1 [Compound 46, [(2S,5R)-5-[[3-[5-(trifluoromethyl)-2-thienyl]imidazo[1,2-b]pyridazin-6-yl]amino]tetrahydropyran-2-yl]methanol]

Further lines, the compound ahead of its results:

SMILES | IC50 (PIM1) [nM] | IC50 (PIM2) [nM] | IC50 (PIM3) [nM] | IC50 (Ba/F3-EPOR-JAK2-V617F) [nM] | F (Pharmacokinetic test; oral administration, 50 mg/kg) [%] | AUC(0-t) (Pharmacokinetic test; intravenous injection, 2 mg/kg) [ng·h/mL] | clearance (Pharmacokinetic test; intravenous injection, 2 mg/kg) [mL/min/kg] | half-life (Pharmacokinetic test; intravenous injection, 2 mg/kg) [min] | Vd (Pharmacokinetic test; intravenous injection, 2 mg/kg) [L/kg] | AUC(0-t) (Pharmacokinetic test; oral administration, 50 mg/kg) [ng·h/mL] | Cmax (Pharmacokinetic test; oral administration, 50 mg/kg) [ng/mL] | Tmax (Pharmacokinetic test; oral administration, 50 mg/kg) [min] | half-life (Pharmacokinetic test; oral administration, 50 mg/kg) [min]
CC(C)(O)[C@H]1CC[C@H](Nc2ccc3ncc(-c4ccc(C(F)(F)F)s4)n3n2)CC1 [Compound 20, 2-((1r,4r)-4-4-((3-(5-(trifluoromethyl)thiophen-2-yl)imidazo[1,2-b]pyridazin-6-yl)amino)cyclohexyl)propan-2-ol] | < 2 | 100 to 1000 | 10 to 100 | < 50 | 66.6 | 1090 | 31 | 63.6 | 1.85 | 18100 | 3980 | 79.8 | 210
FC(F)(F)c1ccc(-c2cnc3ccc(NC4CCCNCC4)nn23)s1 (stereo not shown) [Compound 28, N-(azepan-4-yl)-3-[5-(trifluoromethyl)-2-thienyl] imidazo[1,2-b] pyrid azin-6-amine] | < 2 | 100 to 1000 | 10 to 100 | 50 to 100 | – | – | – | – | – | – | – | – | –
OC12CCC(Nc3ccc4ncc(-c5ccc(C(F)(F)F)s5)n4n3)(CC1)CC2 [Compound 29, 4-[[3-[5-(trefluoromethyl)-2-thienyl]imidazo[1,2-b]pyridazin-6-yl]amino]bicyclo [2.2.2] octan-1-ol] | < 2 | 10 to 100 | 10 to 100 | < 50 | 35.7 | 859 | 39.7 | 25.2 | 1.38 | 7650 | 6670 | 19.8 | 84.6
FC(F)(F)c1cccc(-c2cnc3ccc(NC4CC5(CCNCC5)C4)nn23)c1 [Compound 16, N-(7-azaspiro[3.5]nonan-2-yl)-3-[3-(trifluoromethyl)phenyl]imidazo[1,2-b]pyridazin-6-amine] | 2 to 10 | 100 to 1000 | 10 to 100 | > 150 | – | – | – | – | – | – | – | – | –
FC(F)(F)c1ccc(-c2cnc3ccc(NC4CC5(CCNCC5)C4)nn23)s1 [Compound 31, N-(7-azaspiro[3.5]nonan-2-yl)-3-[5-(trifluoromethyl)-2-thienyl]imidazo[1,2-b]pyridazin-6-amine] | < 2 | 100 to 1000 | 10 to 100 | 50 to 100 | – | – | – | – | – | – | – | – | –
